The text below walks through data of patent US9821024B2, “Immunomodulatory compositions” (Sigmoid Pharma Limited, priority 2010, dated 2017).

The structures appear in SMILES notation.

The subject of the assay is NFκB. The conditions noted are these: HeLa cells; FIG. 29.

`NNc1nncc2ccccc12` [Hydralazine]: the “Concentration of maximal NFκB activation” value turned out to be 10 µg/mL.
